Assay results published in patent US10413532B2, “Pharmaceutical compositions containing a PDE4 inhibitor and a PI3 delta or dual PI3 delta-gamma kinase inhibitor” (Rhizen Pharmaceuticals SA, priority 2012, dated 2019).

Assays:
TNFα = assay: LPS induced TNFα in PBMC; format: cell-based; details: 10 nM alone, LPS
Description: PBMC (peripheral blood mononuclear cells) from whole blood were isolated by density gradient using Histopaque and incubated with the desired concentration of inhibitor for 15 minutes. LPS (1 μg/ml) was added and then incubated for 24 hours. The supernatant was collected and TNFα estimated using an eBioscience TNFα ELISA kit.
PBMC from whole blood were isolated by density gradient using Histopaque and incubated with the desired concentration of inhibitor for 15 minutes. LPS (1 μg/m1) was added and then incubated for 24 hours. The supernatant was collected and TNFα estimated using an eBioscience TNFα ELISA kit.

neutrophil infiltration = assay: Lipopolysaccharide induced pulmonary neutrophilia in female Wistar rats; format: in vivo
Description: After the quarantine period, fasted animals were randomized and divided into groups depending on their body weights. Test compound was prepared as a suspension in a vehicle consisting of 0.5% methylcellulose in which Tween 80 was used as a suspending agent. Compounds or vehicle were administered by oral gavage in a volume of 10 mL/kg. Animals were anaesthetized with ketamine and LPS solution was administered intratracheally 30 minutes after compound administration at a dose of 1 mg/kg. Six hours after LPS instillation, animals were exsanguinated under anaesthesia, and the trachea was cannulated, and lungs were lavaged with 5-ml aliquots of heparinised PBS (1 unit/ml) four times through the tracheal cannula (total volume 20 ml). Bronchioalveolar (BAL) fluid was stored at 2-8° C. until assayed for total cell and differential leukocyte count. BAL fluid was centrifuged (500×g for 10 min) and the resulting cell pellet was resuspended in 0.5 ml of heparinised saline. The total numbers of white blood cells were determined in BAL fluid or blood using a cell counter and were adjusted to 1×10^6 cell/ml. Differential cell count was calculated manually. One hundred microliters of the cell suspension was centrifuged using cytospin 3 to prepare a cell smear. The cell smear was stained with a blood staining solution for differentiation and slides were microscopically observed to identify eosinophils according to their morphological characteristics. The number of each cell type among 300 white blood cells in the cell smear was determined and expressed as a percentage of total cells. The number of eosinophil in BALF was calculated.
The procedure for LPS induced pulmonary neutrophilia in female Wistar rats as described in Example 1 was performed with compound A1 and roflumilast.

MMP-9 = MMP-9 release from PMA-induced THP-1 cells (gelatin zymography); format: cell-based, human; details: Homo sapiens; compound alone; THP-1 cells, PMA; read-out: IC50 for the reduction of MMP-9
Description: Gelatinase activity of MMP-9 was determined by zymography. Proteins in supernatant (after incubation of THP-1 cells with 50 ng PMA for 24 h) were separated on gels containing 0.1% gelatin (Sigma, USA). Gels were re-natured by incubation in 2.5% Triton X-100 for 30 min, incubated overnight in substrate buffer (50 mMTris-HCl, pH 7.5) containing 10 mM CaCl2 and 0.05% ZnCl2 at 37° C. and stained with Coomassie brilliant blue (0.5%). […] Molecular weight markers (Fermentas, Lithuania) were run with each gel. Band intensity was calculated using ImageJ 1.42 (NIH, USA).

[1] = system: macrophage and neutrophil infiltration; assay: Chronic cigarette smoke induced cell infiltration in male Balb/c mice; format: in vivo; details: alone at 1 mg/kg oral; chronic CS, mouse
Description: Animals were acclimatized for seven days prior to the start of the experiment. Animals were randomly distributed to various groups based on their body weights. Mice were exposed to the mainstream smoke of 4 cigarettes from day 1 to day 11. Exposure to the smoke of each cigarette lasted for […] (each cigarette was completely burned in the first two minutes, followed by an air flow with animal ventilator) and were exposed for the next 20 min with fresh room air. After every second cigarette an additional break of 20 min with exposure to fresh room air was conducted. Control animals were exposed to the room air chamber. Test compound was administered by the oral route from day 6 to day 11 before 30 mins whole body smoke exposure. On day 12, 24 hours after the last cigarette smoke (CS) exposure animals were exsanguinated under anaesthesia, and the trachea was cannulated and the lungs were lavaged with 0.5 ml aliquots of heparinised PBS (1 unit/nil) four times through tracheal cannula (total volume 2 ml). Bronchioalveolar (BAL) collected was stored at 2-8° C. until assayed for total cell and differential leukocyte count. BAL fluid was centrifuged (500×g for 10 min) and the resulting cell pellet was resuspended in 0.5 ml of heparinised saline. The total number of white blood cells was determined in BAL fluid and blood using a blood cell counter and adjusted to 1×10^6 cell/ml. Differential cell count was calculated manually Forty microliters of the cell suspension was centrifuged using cytospin 3 to prepare a cell smear. The cell smear was stained with a blood staining solution for differentiation and microscopically observed by identifying each cell according to its morphological characteristics. The number of each cell type among 300 white blood cells in the cell smear was determined and expressed as a percentage, and the number of neutrophils and macrophages in each BAL fluid were calculated.

A549 cells = assay: Cell cycle analysis / CSE induced apoptosis in A549 cells; format: cell-based; details: compound alone, CSE 72 h
Description: A549 cells were plated in 6-well plates at a density of 100,000 cells per well and stimulated with CSE for 72 h. After incubation, cells were fixed in 70% ethanol and stored at 4° C. till analysis. Cells were stained with Guava Cell Cycle reagent according to the manufacturer's instructions. Cell cycle data were obtained using the Guava Personal Cell Analysis System (Millipore, USA).

pAkt (S473) = assay: phospho-Akt (S473) in differentiated U937 cells stimulated with cigarette smoke extract (SDS-PAGE); format: cell-based; details: Homo sapiens, U-937; compound alone; differentiated U937, CSE; read-out: IC50 of inhibition of Akt phosphorylation
Description: U-937 monocytes were differentiated into macrophages by incubation with 50 ng/ml PMA for 48 h. Cells were trypsinized and plated at a density of 100,000 per well and stimulated with CSE for 2 h in starvation media. Lysates were made using RIPA buffer and run by SDS-PAGE, transferred to PVDF membrane and probed with phospho-Akt (S473) antibody (Cell signaling, USA) followed by anti-rabbit IgG (Cell signaling, USA). Band intensity was calculated using ImageJ 1.42 (NIH, USA).

elastase = assay: fMLP induced elastase release from human neutrophils; format: cell-based; details: Neutrophil, compound alone
Description: Blood was procured from a local blood bank. Neutrophils were obtained using the dextran sedimentation method. Cells were plated at 100,000 cells per well in a 96-well plate, treated with fMLP (1 μM) and N-Succinyl-Ala-Ala-Ala-p-nitroanalide (1 μM) (Sigma) and incubated for 2 h. Intensity of digested substrate after incubation was determined by measuring the absorbance at 405 nm on a Fluostar Omega (BMG Labtech, NC, USA).

O=C(Nc1c(Cl)cncc1Cl)c1ccc(OC(F)F)c(OCC2CC2)c1 [Compound A, roflumilast, reference compound]
decrease of TNFα secretion (TNFα): 25% | percent inhibition of neutrophil infiltration (neutrophil infiltration; 0.3 mg/kg oral, rat BAL fluid 6 h after LPS): −7.89% | percent inhibition of neutrophil infiltration (neutrophil infiltration; 1 mg/kg oral, dose-response study, rat): 43.46% | percent inhibition of neutrophil infiltration (neutrophil infiltration; 3 mg/kg oral, rat): 68.02% | percent inhibition of neutrophil infiltration (neutrophil infiltration; 10 mg/kg oral, rat): 92.21% | ED50 (neutrophil infiltration; Neutrophil, oral, rat LPS pulmonary neutrophilia, read-out: 50% inhibition (ED50) dose, neutrophil infiltration): 1.8 mg/kg | inhibition of neutrophil infiltration (neutrophil infiltration; combination study, alone at 1.8 mg/kg, rat): 36.18% | IC50 (MMP-9): 577 nM | inhibition of macrophage infiltration [1]: 6.30% | inhibition of neutrophil infiltration [1]: 34.60% | inhibition of apoptosis (A549 cells): dose-dependent inhibition of apoptosis | IC50 (pAkt (S473)): 1930 nM | Emax (elastase; Homo sapiens, read-out: Emax of inhibition of elastase release): 43% | IC50 (elastase; human neutrophils, read-out: IC50 of inhibition of fMLP induced elastase release): 10.2 nM
